According to patent US8440670B2, “Pyridopyrazindione derivative and its use as an antiulcer drug” (Innovative Pharmacology Research OOO (IPHAR), priority 2010, dated 2013):
Where two headings read alike, the source gives them in different places.

Assays:
[1] = system: basal gastric acid secretion; experiment: Influence on basal secretion in rats (pylorus ligature); type: in vivo
Protocol: 2.1. Studying the influence of the compound on basal secretion in rats.
The study was conducted using male rats weighting 180-200 g. The animals were deprived of food for 24 hours, water access was not limited. Using ether anesthesia their abdomens were opened and a ligature put on the pylorus. […] The studied compound was administered in 100 mg/kg dose as water suspension, with the addition of Tween-80, 60 minutes before the ligature of pylorus. Control animals were given distilled water with the addition of Tween-80. Omeprazole in 50 mg/kg dose and famotidine in 25 and 50 mg/kg doses were used as drugs of comparison.

[2] = type: in vivo
Description: Studying the Toxicity (LD50) of Studied Compounds Following Single Administration

[3] = system: stimulated gastric acid secretion; experiment: Gastric secretion stimulated by histamine, pentagastrin and 1-aminopyrene; type: in vivo, rats; parameters: inhibition of 1-aminopyrene-induced secretion: concentration or dose not given beside the values
Protocol: 2.2. Studying gastric secretion stimulated by histamine, pentagastrin and 1-aminopyrene.
The study was conducted using male rats weighting 180-200 g. The animals were deprived of food for 24 hours, water access was not limited. Before putting a ligature on the pylorus, one group of animals was administered histamine (2.5 mg/kg) subcutaneously, second group was administered pentagastrin ([…]) subcutaneously, third group was administered 1-aminopyrene 1 mg/kg. The studied compound was administered in 100 mg/kg dose as water suspension, with the addition of Tween-80,
1 and 3 hours before the ligature of pylorus. Control animals were given distilled water with the addition of Tween-80. Omeprazole in 50 mg/kg dose and famotidine in 25 and 50 mg/kg doses were used as the drugs of comparison. 4 hours after the operation stomach contents were studied: secretion volume per 100 g of animal mass, gastric acid pH, free hydrochloric acid and general acidity of gastric acid.

intestinal peristalsis = experiment: Intestinal peristalsis study (activated charcoal); type: in vivo; settings: mice, given 60 minutes before activated charcoal
Protocol: 3.1. Studying intestinal peristalsis.
The studied compounds were administered to male mice (body weight 22-24 g) by a tube into the stomach 60 minutes before the administration of activated charcoal (0.3 ml of 10% suspension into the stomach). After 2 hours the animals were sacrificed by CO2 and the length of small intestine filled with charcoal was measured in cm. Control group animals were administered 0.3 ml of water, cerucal in 25 mg/kg dose was chosen as the drug of comparison.

[4] = target: T1, H,K-ATPase of rabbit gastric mucosa (Oryctolagus cuniculus, UniProt P27112); experiment: Action on enzyme activity of H,K-ATPase of rabbit gastric mucosa (inorganic phosphate from ATP hydrolysis); type: biochemical; settings: for IC50: read-out: I50, inhibition of H,K-ATPase
T1 construct: a white layer was seen on the borderline of 4% and 12% Ficoll that was a microsome fraction, enriched with H,K-ATPase; from tissue; host or cells: rabbit gastric (stomach) mucosa microsomes
T1 sequence (P27112 whole entry): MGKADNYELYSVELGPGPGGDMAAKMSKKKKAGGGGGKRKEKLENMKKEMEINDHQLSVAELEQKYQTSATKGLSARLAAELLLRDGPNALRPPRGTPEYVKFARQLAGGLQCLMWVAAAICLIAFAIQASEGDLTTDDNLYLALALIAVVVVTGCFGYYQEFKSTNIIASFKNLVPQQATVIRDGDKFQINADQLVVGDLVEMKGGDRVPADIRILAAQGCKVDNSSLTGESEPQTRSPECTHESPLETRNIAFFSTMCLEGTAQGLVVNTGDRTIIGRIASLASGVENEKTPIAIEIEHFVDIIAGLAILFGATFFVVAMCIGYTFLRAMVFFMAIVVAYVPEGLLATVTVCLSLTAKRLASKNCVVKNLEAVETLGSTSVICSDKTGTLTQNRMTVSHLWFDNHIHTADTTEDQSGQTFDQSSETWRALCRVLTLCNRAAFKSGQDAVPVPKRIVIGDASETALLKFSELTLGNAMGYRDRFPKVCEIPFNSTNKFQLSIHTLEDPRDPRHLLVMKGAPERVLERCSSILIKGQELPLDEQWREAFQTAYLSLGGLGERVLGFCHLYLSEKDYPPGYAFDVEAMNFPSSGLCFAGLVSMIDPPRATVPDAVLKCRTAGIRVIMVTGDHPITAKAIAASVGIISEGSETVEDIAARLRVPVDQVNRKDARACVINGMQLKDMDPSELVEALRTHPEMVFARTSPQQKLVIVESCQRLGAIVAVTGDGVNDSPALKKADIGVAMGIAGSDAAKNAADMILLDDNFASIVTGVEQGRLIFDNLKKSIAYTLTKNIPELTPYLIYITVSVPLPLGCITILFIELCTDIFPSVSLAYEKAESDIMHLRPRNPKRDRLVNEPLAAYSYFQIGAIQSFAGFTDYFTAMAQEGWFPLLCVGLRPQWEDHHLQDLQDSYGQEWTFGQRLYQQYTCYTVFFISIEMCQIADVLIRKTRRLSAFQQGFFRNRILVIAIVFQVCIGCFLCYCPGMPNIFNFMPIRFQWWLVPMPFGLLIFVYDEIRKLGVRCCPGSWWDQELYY
T1 sequence (P18597 whole entry partner): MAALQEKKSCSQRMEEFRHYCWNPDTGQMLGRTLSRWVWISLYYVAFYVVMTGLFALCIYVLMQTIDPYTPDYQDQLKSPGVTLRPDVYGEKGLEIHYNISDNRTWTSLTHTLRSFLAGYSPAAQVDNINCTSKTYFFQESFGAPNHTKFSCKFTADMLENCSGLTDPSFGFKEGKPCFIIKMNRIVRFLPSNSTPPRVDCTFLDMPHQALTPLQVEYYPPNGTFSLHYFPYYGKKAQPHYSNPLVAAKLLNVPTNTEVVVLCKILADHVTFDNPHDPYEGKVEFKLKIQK
Protocol: Microsome preparation, enriched with H+, K+-ATPase, was produced from the rabbit stomach mucosa using a method proposed by Farley and Faller.
Gastric mucosa was produced from a decapitated rabbit. All operations were carried out in ice. The stomach was cut at the greatest curve line, washed and scrubbed. Obtained mucosa was frozen and kept at −80° C. temperature.
To obtain a microsome preparation enriched with H,K-ATPase, gastric mucosa was defrozen and homogenized in extraction medium (0.25 mol sucrose, 5 mmol PIPES, 20 mmol Tris (THAM), ph 7.4) by a Polytron-class homogenizer (max rotations 30/sec). Mass ratio of tissue to extraction medium—1:20.
The homogenate was then centrifuged for 10 min at 10000 g. The sediment was discarded and supernatant was them centrifuged for 1 hour at 100000 g. The produced sediment was re-suspended in extraction medium (using the minimal volume necessary for re-suspension). The suspension was layered above Ficoll 400, prepared in the extraction medium: 12% Ficoll solution, 4% Ficoll solution. It was further centrifuged for 180 min at 100000 g. After centrifuging, a white layer was seen on the borderline of 4% and 12% Ficoll that was a microsome fraction, enriched with H,K-ATPase. The fraction was collected, divided into aliquots and kept at −80° C.
The effect was measured by the growth of inorganic phosphate that is produced during ATP hydrolysis. The concentration was measured using Ratbun and Betlah method. The incubation medium contained: 30 mmol imidazole, ph 7.4, 3 mmol MgCl2, 130 mmol NaCl, 20 mmol KCl, 3 mmol ATP, 2 mmol ouabain, 0.1 mmol EGTA, 2.25 μmol valinomycin, 5 mmol NaN3, 5 μmol of CCCP (Carbonyl cyanide m-chlorophenyl hydrazone).
Incubation medium and defrozen and homogenized microsome fraction were added into incubation sample. The sample was incubated for 20 min at 37° C., then the reaction was stopped by a cold stop-solution (3 mol sodium acetate, 3.7% formaldehyde, pH 4.3).
To evaluate the content of phosphate, produced during enzymatic hydrolysis of ATP, 2% ammonium molybdate solution and tin chloride solution (3 mg/ml) was into the sample. After the appearance of blue color, after 15 minutes, the samples were studied by colorimetry using wavelength of 650 nm
The H,K-ATPase activity was determined as activity inhibited by 0.1 mmol SCH-28080. […] The concentration of the studied compound was varied in range of 10^−8 to 10^−4 mol.
Possible competition between compound I and potassium ions was studied. To achieve this, the relation of H,K-ATPase and KCl concentration was studied, and then the inhibitory action of compound I on this enzyme in saturated (20 μmol) and unsaturated (2 μmol) concentrations of KCl was studied.

H,K-ATPase = H,K-ATPase (Homo sapiens, UniProt P20648); settings: K+-competitive; read-out: Ki (inhibition constant); cited from earlier work
Sequence of H,K-ATPase (P20648 whole entry): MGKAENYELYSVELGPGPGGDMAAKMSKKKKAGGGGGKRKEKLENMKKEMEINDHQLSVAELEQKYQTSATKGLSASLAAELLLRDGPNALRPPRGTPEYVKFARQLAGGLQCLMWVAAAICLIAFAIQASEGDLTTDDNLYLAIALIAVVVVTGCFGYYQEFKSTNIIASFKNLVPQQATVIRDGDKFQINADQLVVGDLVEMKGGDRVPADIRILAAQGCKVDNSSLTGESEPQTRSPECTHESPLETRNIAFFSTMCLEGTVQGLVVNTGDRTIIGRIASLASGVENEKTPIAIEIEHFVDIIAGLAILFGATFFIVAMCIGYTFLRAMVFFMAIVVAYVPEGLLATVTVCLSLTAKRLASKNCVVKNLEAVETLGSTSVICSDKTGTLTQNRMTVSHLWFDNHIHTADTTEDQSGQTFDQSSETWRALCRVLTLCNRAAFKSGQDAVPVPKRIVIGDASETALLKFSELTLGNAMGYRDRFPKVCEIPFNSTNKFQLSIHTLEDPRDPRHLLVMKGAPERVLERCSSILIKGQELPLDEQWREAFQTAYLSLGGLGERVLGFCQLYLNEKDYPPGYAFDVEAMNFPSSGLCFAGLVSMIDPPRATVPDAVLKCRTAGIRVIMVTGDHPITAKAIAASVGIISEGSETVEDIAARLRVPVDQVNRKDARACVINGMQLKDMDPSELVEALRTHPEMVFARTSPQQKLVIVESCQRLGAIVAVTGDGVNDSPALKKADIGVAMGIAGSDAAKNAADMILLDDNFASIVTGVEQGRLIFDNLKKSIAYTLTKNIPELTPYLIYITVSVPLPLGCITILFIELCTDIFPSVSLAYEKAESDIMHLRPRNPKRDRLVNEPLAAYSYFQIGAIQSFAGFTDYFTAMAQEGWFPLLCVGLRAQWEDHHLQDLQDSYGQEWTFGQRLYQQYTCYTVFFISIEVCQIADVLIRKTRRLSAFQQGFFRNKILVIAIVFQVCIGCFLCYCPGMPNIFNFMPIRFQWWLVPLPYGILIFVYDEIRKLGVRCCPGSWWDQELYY
Sequence of H,K-ATPase (P51164 whole entry partner): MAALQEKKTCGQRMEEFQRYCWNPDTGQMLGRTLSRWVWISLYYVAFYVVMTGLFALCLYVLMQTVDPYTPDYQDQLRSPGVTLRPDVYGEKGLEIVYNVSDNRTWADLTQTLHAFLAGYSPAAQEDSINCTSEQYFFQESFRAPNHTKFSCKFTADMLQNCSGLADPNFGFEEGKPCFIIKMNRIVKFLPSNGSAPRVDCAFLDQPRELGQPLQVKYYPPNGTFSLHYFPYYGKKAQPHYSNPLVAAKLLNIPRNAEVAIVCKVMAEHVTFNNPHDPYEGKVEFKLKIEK

Molecule: CCOc1ccc(CCN2CC(=O)N3CCCC(C4=CC(=O)C=CC4O)=C3C2=O)cc1 (centres unmarked) [Compound I, 9-(quinonil-2)-2-p-ethoxyphenylethyl-4,5,6,7,8,9,10,11-octahydropyrido[1,2-a]pyrazindione-1,4]
- inhibition of basal gastric acid secretion level ([1]; 100 mg/kg, time not stated): does not inhibit basal gastric acid secretion level
- general toxicity ([2]; in vivo): low-toxic
- inhibition of histamine-induced secretion ([3]; after 3 hours): 57%
- inhibition of histamine-induced secretion ([3]; one hour after administration): 40%
- inhibition of 1-aminopyrene-induced secretion ([3]; time not stated): 50%
- inhibition of pentagastrin-induced secretion ([3]; time not stated): about 54%
- slowing of intestinal peristalsis (intestinal peristalsis): does not influence peristalsis
- IC50 ([4]; 2 μmol KCl (unsaturated)): 10 µM
- IC50 ([4]; 20 μmol KCl (saturated)): 1 µM
- competition with K+ ions ([4]; 2 and 20 μmol KCl): does not compete with K+ ions
- reversibility of effect on H,K-ATPase ([4]; dilution of enzyme-inhibitor complex): reversible

Molecule: NC(N)=Nc1nc(CSCCC(N)=NS(N)(=O)=O)cs1 [famotidine]
- inhibition of basal secretion ([1]; after three hours): 80%
- inhibition of basal secretion ([1]; one hour after administration): 56%
- inhibition of 1-aminopyrene-induced secretion ([3]; after 1 hour): 36%
- inhibition of 1-aminopyrene-induced secretion ([3]; after 3 hours): 40%
- inhibition of histamine-induced secretion ([3]; after 3 hours): 95%
- inhibition of histamine-induced secretion ([3]; one hour after administration): 90%
- inhibition of pentagastrin-induced secretion ([3]; time not stated): 40%
- slowing of intestinal peristalsis (intestinal peristalsis): does not influence peristalsis

Molecule: CNc1nc2c(C)cccc2c2c1CCN2c1ccccc1C [SK&F96356]
- Ki (H,K-ATPase): 0.07 µM

Molecule: SCH-28080
- inhibition of H,K-ATPase activity ([4]; 0.1 mmol inhibitor): about 30%

Molecule: COc1ccc2[nH]c([S+]([O-])Cc3ncc(C)c(OC)c3C)nc2c1 (centres unmarked) [omeprazole]
- inhibition of basal secretion ([1]; after three hours): 40%
- inhibition of basal secretion ([1]; one hour after administration): 25%
- general toxicity ([2]; single administration): low-toxic
- inhibition of histamine-induced secretion ([3]; after 3 hours): 80%
- inhibition of histamine-induced secretion ([3]; one hour after administration): 70%
- inhibition of 1-aminopyrene-induced secretion ([3]; time not stated): about 90%
- inhibition of pentagastrin-induced secretion ([3]; time not stated): about 90%
- slowing of intestinal peristalsis (intestinal peristalsis): 35%
